Test results published in the supplement of paper PMC10307832.

Columns and labels:
Assay in all cases: relative viability (nuclei count vs DMSO), 5 days (fraction); higher = more cells survive
[1] = compound: CC1=CC(=CC=C1)NC2=NC(=CS2)C3=CC=NC=C3 + NC(=O)Nc1cc(-c2cccc(F)c2)sc1C(=O)N[C@H]1CCCNC1 [AZD7762] (partner 0.2 µM)
In short: (§1)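 Values are medians from duplicate plates. Each reflects relative viability, defined as the nuclei count of treated wells over that of vehicle wells. Lung cancer cell lines in 1536-well plates were pin-tool dosed one day after seeding with one drug alone or with a fixed anchor-drug dose plus five library-drug doses (not always all listed) in √10 steps, then fixed, stained and imaged at 4× after 5 days.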

[2] = compound: CC1=CC(=CC=C1)NC2=NC(=CS2)C3=CC=NC=C3 + CCNC(=O)c1noc(-c2cc(C(C)C)c(O)cc2O)c1-c1ccc(CN2CCOCC2)cc1 [Luminespib] (partner 0.01 µM)
In short: as §1

[3] = compound: Cc1ccc(NC(=O)c2ccc(CN3CCN(C)CC3)cc2)cc1Nc1nc(-c2cccnc2)cs1 [Masitinib] + CC(=O)c1c(C)c2cnc(Nc3ccc(N4CCNCC4)cn3)nc2n(C2CCCC2)c1=O [Palbociclib] (partner 0.5 µM)
In short: as §1

[4] = compound: CC1=CC(=CC=C1)NC2=NC(=CS2)C3=CC=NC=C3 + CC(=O)c1c(C)c2cnc(Nc3ccc(N4CCNCC4)cn3)nc2n(C2CCCC2)c1=O [Palbociclib] (partner 0.5 µM)
In short: as §1

Cell Line	relative viability ([1]; first compound 0.08 µM)	relative viability ([1]; first compound 0.253 µM)	relative viability ([1]; first compound 0.8 µM)	relative viability ([1]; first compound 2.53 µM)	relative viability ([1]; first compound 8 µM)	relative viability ([2]; first compound 0.08 µM)	relative viability ([2]; first compound 0.253 µM)	relative viability ([2]; first compound 0.8 µM)	relative viability ([2]; first compound 2.53 µM)	relative viability ([2]; first compound 8 µM)	relative viability ([3]; first compound 0.01 µM)	relative viability ([3]; first compound 0.03162 µM)	relative viability ([3]; first compound 0.1 µM)	relative viability ([3]; first compound 0.3162 µM)	relative viability ([3]; first compound 1 µM)	relative viability ([4]; first compound 0.08 µM)	relative viability ([4]; first compound 0.253 µM)	relative viability ([4]; first compound 0.8 µM)	relative viability ([4]; first compound 2.53 µM)	relative viability ([4]; first compound 8 µM)
HCC-15	1.11	1.19	1.03	1.03	1.02	0.386	0.299	0.475	0.31	0.274	0.658	0.74	0.799	0.739	0.77	0.74	0.641	0.631	0.562	0.653
EKVX	0.63	0.703		0.764	0.524	0.854	0.835	0.892	0.819	0.765	0.35	0.333	0.343		0.295	0.36	0.384		0.39	0.268
NCI-H2126	0.967	1.09	1.06	0.95	0.981	0.825	0.855	0.9	0.875	0.865	0.33	0.341	0.376	0.337	0.379	0.336	0.38	0.346	0.321	0.339
LK-2		0.429	0.555	0.36	0.618		0.161	0.207		0.183	0.691	0.697	0.666	0.76	0.762		0.764	0.675	0.699	1.06
ABC-1	0.675	0.613	0.688	0.628	0.881	0.447	0.766	0.492	0.676	0.647	0.699	0.855	0.784	0.598	0.661	0.627		0.944	0.795	0.473
SW 900	0.65	0.576	0.745	0.508	0.26	0.186	0.178	0.172	0.188	0.178	0.462	0.458	0.575	0.502	0.513	0.508	0.464	0.49	0.477	0.46
PC-14	0.254	0.28	0.383	0.247	0.316	0.143	0.183	0.171	0.123	0.138	0.57	0.323	0.636	0.57	0.621	0.502	0.484	0.553	0.515	0.394
A-427	0.646	0.795	0.815	0.81	0.646	0.738	0.916	0.918	0.729	0.866	0.453	0.557	0.548	0.525	0.488	0.473	0.531	0.485	0.538	0.5
NCI-H1915	0.755	0.665	0.689	0.686	0.667	0.897	0.857	0.833	0.787	0.776		0.518		0.536	0.642	0.545	0.47	0.53	0.524	0.492
